Tested on: SIRT 1
Test: Western blot analysis of the expression of SIRT 1 in HeLa cells
Format: cell-based, Human
Details: for % 3 h increase (SIRT 1 expression compared to control) / % 6 h increase (SIRT 1 expression compared to control) / % 24 h increase (SIRT 1 expression compared to control): HeLa cells; for increase of SIRT 1 expression relative to the other groups: Table 1, especially with respect to resveratrol, reference standard
Procedure: The synergistic effects of co-administration of two substances on SIRT 1 stimulation, determined as a greater, statistically significant effect than the sum of the effects of the two substances individually administered, were evaluated in cell cultures by repeating the experiment at least 8 times for each single combination, either after a stimulation time of 3, 6 and 24 hours (more than 300 total trials), as described in the following detailed description.
Human Cervical Carcinoma cells (HeLa) were cultured in DMEM supplemented with 10% (v/v) fetal bovine serum, 1% antibiotics (penicillin and streptomycin) and 1% L-glutamine at 37° C. in a humidified air atmosphere with 5% (v/v) CO2.
The cells were grown to a confluence of 80%, were then trypsinized, counted with a Burker chamber and plated (100,000 cells /well). The day of the experiment, the cells were treated with the substances at the different concentrations and left in incubation for 3, 6 and 24 hours. The substances were solubilized in DMSO, used at concentrations not toxic for cells (v/v<0.5%).
At the end of the incubation periods, the cells were washed with PBS (pH 7.4) and collected in a 1.5 ml microtube with 0.130 ml of lysis buffer (RIPA buffer) containing a protease inhibitor cocktail, a phosphatase inhibitor cocktail, PMSF, sodium orthovanadate and sodium pyrophosphate.
They were lysed by three freezing-thawing cycles and then the supernatant were recovered.
A part of the lysate was used to quantified the protein content with the spectrophotometer (Thermo Scientific Multiskan FC, Thermo Scientific), using a commercial kit based on the Bradford assay. The final concentrations are expressed in μg/μl.
The cell lysates (25 μg/μl) were combined with the appropriate amount of 1× SDS sample buffer (0.5 M Tris-HCl pH 6.8, 20% SDS, 10% [vol/vol] glycerol, 5% [vol/vol] β-mercaptoethanol, 0.2% bromophenol blue), heated at 95° C. for 5 min, separated by SDS-PAGE and then transferred to polyvinylidene difluoride membranes (PVDF).
For the electrophoretic separation was used a polyacrylamide gel, composed of two parts, a lower one called “Running gel”, containing acrylamide (acrylic acid amide) to 12% (acrylamide/bis-acrylamide 30%), in which occurs the separation of the proteins, and an upper one, called loading gel or “Stacking gel”, containing acrylamide to 10%, where were built the wells for sample loading.
The electrophoretic run was performed by passing a current at 200V for about 1 hour, or until when the front has not reached the bottom of the gel.
Once running, the proteins were transferred from the gel to a […] membrane (PVDF).
The transfer was performed by passing a voltage of 100V for 1 hour.
The membranes were blocked with 5% (wt/vol) nonfat dry milk in Tris-buffered saline with Tween buffer (T-TBS) (20 mmol/1 Tris-Hcl, pH 7.6, 0.138 mol/l NaCl, and 0.1% Tween 20) for 1 hour under stirring and at room temperature.
The expression of SIRT 1 was analyzed incubating the membranes in the presence of specific primary antibodies and, subsequently, of secondary peroxidase-conjugated antibodies, suitable diluted in 5% BSA in T-TBS. Primary Antibodies were used overnight at 4° C. at the following conditions: anti-SIRT 1, rabbit (1:1000) and anti-β-actine, mouse (1:1000). Secondary antibodies were instead used at this dilution: goat anti-rabbit (1:10000) for SIRT 1 and for β-actin.
During this phase the primary antibody binds to species-specific secondary antibody conjugated to a peroxidase enzyme that will bind, in the next step, a specific substrate (luminol) for the reaction of chemiluminescence.
Later, were performed a series of washes with TBS-Tween under stirring, in order to remove all the unbound secondary antibody.
Bound antibodies were visualized using Chemiluminescence Luminata Crescendo Western HRP Substrate and bands were detected and analyzed by the Kodak Image Station 440CF (Eastman Kodak, Rochester, N.Y., USA).

Compound | % 3 h increase (SIRT 1 expression compared to control) (5 μM) [%] | % 6 h increase (SIRT 1 expression compared to control) (5 μM) [%] | % 24 h increase (SIRT 1 expression compared to control) (5 μM) [%] | % 3 h increase (SIRT 1 expression compared to control) (10 μM) [%] | % 6 h increase (SIRT 1 expression compared to control) (10 μM) [%] | % 24 h increase (SIRT 1 expression compared to control) (10 μM) [%] | increase of SIRT 1 expression relative to the other groups | % 3 h increase (SIRT 1 expression compared to control) (25 μM) [%] | % 6 h increase (SIRT 1 expression compared to control) (25 μM) [%] | % 24 h increase (SIRT 1 expression compared to control) (25 μM) [%] | % 3 h increase (SIRT 1 expression compared to control) (50 μM) [%] | % 6 h increase (SIRT 1 expression compared to control) (50 μM) [%] | % 24 h increase (SIRT 1 expression compared to control) (50 μM) [%] | % 3 h increase (SIRT 1 expression compared to control) (20 μM) [%] | % 6 h increase (SIRT 1 expression compared to control) (20 μM) [%] | % 24 h increase (SIRT 1 expression compared to control) (20 μM) [%]
COc1ccc2cc3[n+](cc2c1OC)CCc1cc2c(cc1-3)OCO2 [Berberine, Berberine Chloride Hydrate] | 63 | 65 | 75 | 65 | 64 | 75 | greater increase than the other groups |  |  |  |  |  |  |  |  | 
COc1cc(/C=C/C(=O)O)ccc1O [Ferulic Acid] |  |  |  |  |  |  | greater increase than the other groups | 43 | 44 | 66 | 57 | 58 | 75 |  |  | 
O.O.O=c1c(O)c(-c2ccc(O)c(O)c2)oc2cc(O)cc(O)c12 [Quercetin, Quercetin Dihydrate] | 21 | 22 | 29 | 27 | 27 | 54 |  |  |  |  |  |  |  |  |  | 
Oc1ccc(C=Cc2cc(O)cc(O)c2)cc1 [Resveratrol, reference compound] | 46 | 47 | 68 | 47 | 48 | 69 |  |  |  |  |  |  |  |  |  | 
OCCc1ccc(O)cc1 [Tyrosol] |  |  |  | 53 | 62 | 68 | greater increase than the other groups |  |  |  |  |  |  | 76 | 93 | 101
(+)-Catechin | 44 | 44 | 46 | 54 | 54 | 57 | greater increase than the other groups |  |  |  |  |  |  |  |  | 
